According to patent US5547982A, “Anti-tumor platinum complexes” (priority 1995, dated 1996):

Test system: Daudi tumor cell line
Assay: Cytotoxicity testing against Daudi cells (killing of 50% of the Daudi cells)
Format: cell-based
Conditions: 5E9 conjugate versus free agents, conjugate MSR=8.9, read-out: CC50 (concentration of platinum compound which killed 50% of the Daudi cells)

Substance “ammino[4-succinimidyl -(5-aminopentan-2-one) terephthalic hydrazone] tetrachloro platinum (IV) [AAtC]” has a CC50 of 2100 nM.
